Results: ChEMBL document CHEMBL1126154, “Pyrrole mannich bases as potential antipsychotic agents” (J Med Chem, 1992)

How the values were obtained:
Rattus norvegicus [1] = test: The percentage production of catalepsy in rat at a dose of 4 mg/kg ip.; format: functional
Rattus norvegicus [2] = organism: Rattus norvegicus; test: The compound was measured at a dose 10 times the ED50 value for CAR block for production of catalepsy in the rat; format: functional, organism-based
Rattus norvegicus [3] = test: The compound was measured at a dose 10 times the ED50 value for CAR block for production of catalepsy in the rat via oral administration.; format: functional; settings: Rattus norvegicus, po; read-out: ED50
Rattus norvegicus [4] = organism: Rattus norvegicus; test: (§1) ED50 value for catalepsy indicates the dose required to produce a 50% of maximum catalepsy score; format: functional, organism-based
[5] = target: Serotonin 2 (5-HT2) receptor (Rattus norvegicus, UniProt P30994+P08909+P14842); test: The compound was tested for its binding affinity towards 5-hydroxytryptamine 2 receptor by displacing [3H]ketanserin radioligand in rat cerebral cortex; format: tissue-based
Rattus norvegicus [6] = test: Antipsychotic activity at a dose 10 times the ED50 value for CAR block for production of catalepsy in the rat (following i.p. dosing); format: functional; settings: ip
Rattus norvegicus [7] = organism: Rattus norvegicus; test: ED50 value for catalepsy indicates the dose required to produce a 50% of maximum catalepsy score. parentheses value indicate 95% confidence limit.; format: functional
[8] = target: T1, Serotonin 1 (5-HT1) receptor (Rattus norvegicus, UniProt P28564+P30940+P19327+P28565); test: The compound was tested for its binding affinity towards 5-hydroxytryptamine 1 receptor by displacing [3H]5-HT radioligand in rat cerebral cortex; format: tissue-based
[9] = target: T2, Adrenergic receptor alpha-1 (Rattus norvegicus, UniProt P15823+P23944+P43140); test: The compound was tested for its binding affinity towards Alpha-1 adrenergic receptor by displacing [3H]WB-4101 radioligand in rat cerebral cortex; format: tissue-based
T2 sequence (P15823 whole entry): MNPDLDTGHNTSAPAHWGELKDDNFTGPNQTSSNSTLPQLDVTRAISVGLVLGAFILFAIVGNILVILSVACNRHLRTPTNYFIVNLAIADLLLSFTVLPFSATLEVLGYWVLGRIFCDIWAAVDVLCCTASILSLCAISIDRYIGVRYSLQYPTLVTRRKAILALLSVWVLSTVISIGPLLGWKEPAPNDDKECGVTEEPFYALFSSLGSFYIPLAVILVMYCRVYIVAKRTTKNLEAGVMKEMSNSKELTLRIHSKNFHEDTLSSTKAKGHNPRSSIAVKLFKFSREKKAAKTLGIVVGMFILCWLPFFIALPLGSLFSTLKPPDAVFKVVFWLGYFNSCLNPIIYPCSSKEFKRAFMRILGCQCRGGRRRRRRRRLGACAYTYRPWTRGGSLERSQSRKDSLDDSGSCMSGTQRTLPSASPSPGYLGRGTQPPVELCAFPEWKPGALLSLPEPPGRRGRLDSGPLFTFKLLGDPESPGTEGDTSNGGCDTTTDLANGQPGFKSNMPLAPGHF
T2 sequence (P23944 whole entry): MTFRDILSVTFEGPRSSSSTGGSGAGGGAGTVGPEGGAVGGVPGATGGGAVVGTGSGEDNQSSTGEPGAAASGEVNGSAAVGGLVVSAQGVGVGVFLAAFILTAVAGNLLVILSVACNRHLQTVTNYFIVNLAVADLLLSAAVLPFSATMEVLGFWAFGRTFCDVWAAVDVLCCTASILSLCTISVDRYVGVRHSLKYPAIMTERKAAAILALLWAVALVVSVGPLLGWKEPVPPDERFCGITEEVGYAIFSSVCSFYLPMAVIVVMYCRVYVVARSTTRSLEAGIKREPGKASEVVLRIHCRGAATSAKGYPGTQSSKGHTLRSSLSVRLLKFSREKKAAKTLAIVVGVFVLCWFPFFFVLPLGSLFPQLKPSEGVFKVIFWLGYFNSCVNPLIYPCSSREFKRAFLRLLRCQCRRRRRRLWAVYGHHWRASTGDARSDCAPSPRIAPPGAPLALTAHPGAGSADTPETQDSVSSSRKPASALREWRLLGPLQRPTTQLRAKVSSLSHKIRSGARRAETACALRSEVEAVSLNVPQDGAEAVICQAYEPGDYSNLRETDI
T2 sequence (P43140 whole entry): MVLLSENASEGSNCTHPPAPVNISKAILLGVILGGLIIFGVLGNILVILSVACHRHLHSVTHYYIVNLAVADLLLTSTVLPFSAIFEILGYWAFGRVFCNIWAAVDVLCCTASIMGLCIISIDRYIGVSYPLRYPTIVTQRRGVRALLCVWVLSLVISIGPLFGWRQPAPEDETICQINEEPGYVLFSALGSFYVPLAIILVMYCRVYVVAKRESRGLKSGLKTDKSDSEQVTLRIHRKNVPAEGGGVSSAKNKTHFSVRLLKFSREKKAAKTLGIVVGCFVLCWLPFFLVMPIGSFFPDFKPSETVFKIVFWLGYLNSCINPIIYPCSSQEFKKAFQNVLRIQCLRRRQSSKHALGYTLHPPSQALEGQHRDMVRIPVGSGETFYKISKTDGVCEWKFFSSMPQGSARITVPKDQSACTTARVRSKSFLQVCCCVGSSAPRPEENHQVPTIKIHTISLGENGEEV

Rattus norvegicus [10] = test: The percentage production of catalepsy in rat at a dose of 25 mg/kg ip.; format: functional
[11] = target: T1, Serotonin 1 (5-HT1) receptor
Description: The binding affinity was measured on serotonin 5-hydroxytryptamine 1 receptor in rat brain tissue

[12] = target: T3, 5-hydroxytryptamine receptor 1A (Rattus norvegicus, UniProt P19327); test: biochemical
T3 sequence (P19327 whole entry): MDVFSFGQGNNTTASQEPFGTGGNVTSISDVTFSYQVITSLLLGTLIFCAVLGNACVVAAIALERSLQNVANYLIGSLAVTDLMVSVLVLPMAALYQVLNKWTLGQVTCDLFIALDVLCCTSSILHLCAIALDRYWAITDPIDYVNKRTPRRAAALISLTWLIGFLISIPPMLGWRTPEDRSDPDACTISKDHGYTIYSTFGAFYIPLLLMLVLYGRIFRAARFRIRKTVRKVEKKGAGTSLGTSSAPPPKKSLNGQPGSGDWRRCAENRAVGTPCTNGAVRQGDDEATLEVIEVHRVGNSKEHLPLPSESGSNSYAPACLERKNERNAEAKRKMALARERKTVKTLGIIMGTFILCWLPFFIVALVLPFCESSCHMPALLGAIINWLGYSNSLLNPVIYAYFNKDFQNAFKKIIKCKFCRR
Description: The compound was tested for its binding affinity towards 5-hydroxytryptamine 1A receptor by displacing [3H]WB-4101 radioligand in rat hippocampus

[13] = target: T3, 5-hydroxytryptamine receptor 1A; test: Binding affinity towards 5-hydroxytryptamine 1A receptor by displacing [3H]WB-4101 from rat hippocampus; format: tissue-based
Rattus norvegicus [14] = organism: Rattus norvegicus; test: as §1; format: functional
Rattus norvegicus [15] = test: The percentage production of catalepsy in rat at a dose of 58 mg/kg ip.; format: functional
Rattus norvegicus [16] = test: The percentage production of catalepsy in rat at a dose of 40 mg/kg ip.; format: functional
[17] = target: 5-hydroxytryptamine receptor 1B (Rattus norvegicus, UniProt P28564); test: The compound was tested for its binding affinity towards 5-hydroxytryptamine 1B receptor by displacing [3H]serotonin radioligand in rat cerebral cortex; format: tissue-based
Chain of 5-hydroxytryptamine receptor 1B (P28564 whole entry): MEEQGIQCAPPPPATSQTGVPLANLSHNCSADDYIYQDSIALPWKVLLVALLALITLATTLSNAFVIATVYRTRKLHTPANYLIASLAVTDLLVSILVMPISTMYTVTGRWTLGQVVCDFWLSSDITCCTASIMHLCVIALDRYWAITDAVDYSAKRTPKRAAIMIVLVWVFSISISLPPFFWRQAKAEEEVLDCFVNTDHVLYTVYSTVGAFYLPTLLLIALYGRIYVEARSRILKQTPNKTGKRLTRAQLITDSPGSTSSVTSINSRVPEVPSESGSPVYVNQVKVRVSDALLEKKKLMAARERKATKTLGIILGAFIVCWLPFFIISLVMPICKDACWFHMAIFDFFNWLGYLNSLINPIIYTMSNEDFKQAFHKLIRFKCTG

SMILES | Ki [5] | Ki [8] | Ki [9] | ED50 (Rattus norvegicus [6]) | other results
Cc1nc2n(c(=O)c1CCN1CCC(c3noc4cc(F)ccc34)CC1)CCCC2 [RISPERIDONE] | – | – | – | – | % catalepsy at 4 mg/kg (Rattus norvegicus [1]): 50%; ED50 (Rattus norvegicus [2]): 0.32 mg/kg; ED50 (Rattus norvegicus [3]): 2.2 mg/kg; ED50 (Rattus norvegicus [4]): 3.5 mg/kg
Cn1c(CN2CCN(c3cccc([N+](=O)[O-])c3)CC2)ccc1CN1CCCCC1=O | 669 nM | – | – | > 15 mg/kg | –
O=C(CCCN1CCC(O)(c2ccc(Cl)cc2)CC1)c1ccc(F)cc1 [HALOPERIDOL] | – | – | – | – | ED50 (Rattus norvegicus [7]): 0.36 mg/kg
Cn1c(CN2CCN(c3cccc([N+](=O)[O-])c3)CC2)ccc1CN1CCCC1=O | > 100 nM | > 1000 nM | > 100 nM | 15 mg/kg | –
O=C1CCCN1Cc1ccc(CN2CCN(c3ccccc3)CC2)[nH]1 | – | – | – | > 15 mg/kg | –
CCCCOc1ccccc1N1CCN(Cc2ccc(CN3CCCCCC3=O)n2C)CC1 | 237 nM | 58.9 nM | 15.7 nM | > 15 mg/kg | –
Cn1c(CN2CCN(c3cccc(F)c3)CC2)ccc1CN1CCCC1=O | > 100 nM | 1000 nM | > 100 nM | > 15 mg/kg | –
COc1ccccc1N1CCN(Cc2ccc(CN3CCCC3=O)n2-c2ccccc2)CC1 | – | – | 100 nM | > 15 mg/kg | –
O=C1CC2(CCCC2)CC(=O)N1CCCCN1CCN(c2ncccn2)CC1 [BUSPIRONE] | – | – | – | 4.5 mg/kg | –
COc1ccccc1N1CCN(Cc2ccc(CN3CCCCCCC3=O)n2C)CC1 | 1000 nM | 41 nM | 23.1 nM | 8.2 mg/kg | % catalepsy at 25 mg/kg (Rattus norvegicus [10]): 16.3%; ED50 (Rattus norvegicus [3]): > 27 mg/kg
Cn1c(CN2CCN(c3ccccc3)CC2)ccc1CN1CCCC1=O | – | – | 436 nM | > 15 mg/kg | –
CN(C)CCCN1c2ccccc2Sc2ccc(Cl)cc21 [CHLORPROMAZINE] | – | – | – | 1.9 mg/kg | ED50 (Rattus norvegicus [7]): 9.4 mg/kg; Ki [11]: > 1000 nM; Ki [12]: 179 nM
COc1ccccc1N1CCN(Cc2ccc(CN3CCCC3=O)[nH]2)CC1 | 1000 nM | 148 nM | 43.1 nM | > 15 mg/kg | –
CN1CCN(CCCN2c3ccccc3Sc3ccc(C(F)(F)F)cc32)CC1 [TRIFLUOPERAZINE] | – | > 1000 nM | 29.3 nM | 0.5 mg/kg | Ki [13]: 411 nM; ED50 (Rattus norvegicus [14]): 1.7 mg/kg
CCCCc1ccccc1N1CCN(Cc2ccc(CN3CCCC3=O)n2C)CC1 | – | – | – | > 15 mg/kg | –
Cn1c(CN2CCN(c3cccc(C(F)(F)F)c3)CC2)ccc1CN1CCCC1=O | 1000 nM | 156 nM | > 1000 nM | 5.8 mg/kg | % catalepsy at 58 mg/kg (Rattus norvegicus [15]): 56%
CC(C)c1ccccc1N1CCN(Cc2ccc(CN3CCCCCCC3=O)n2C)CC1 | 196 nM | 50.2 nM | 35.9 nM | > 15 mg/kg | –
COc1ccccc1N1CCN(Cc2ccc(CN3CCCCCC3=O)n2C)CC1 | 669 nM | 120 nM | 43.7 nM | 2.1 mg/kg | % catalepsy at 25 mg/kg (Rattus norvegicus [10]): 51%; ED50 (Rattus norvegicus [3]): 30.5 mg/kg
CC(C)Oc1ccccc1N1CCN(Cc2ccc(CN3CCCCC3=O)[nH]2)CC1 | 55.3 nM | 33.1 nM | 5.2 nM | 4 mg/kg | Ki [13]: 5.4 nM; % catalepsy at 40 mg/kg (Rattus norvegicus [16]): 10%
COc1cccc(N2CCN(Cc3ccc(CN4CCCC4=O)n3C)CC2)c1 | – | > 1000 nM | 1000 nM | > 7.5 mg/kg | –
Cn1c(CN2CCN(c3cccc(Cl)c3)CC2)ccc1CN1CCCC1=O | 256 nM | 196 nM | 264 nM | 12.3 mg/kg | –
CCN1CCC[C@H]1CNC(=O)c1cc(S(N)(=O)=O)ccc1OC [LEVOSULPIRIDE] | – | – | > 1000 nM | > 40 mg/kg | ED50 (Rattus norvegicus [14]): > 40 mg/kg
CC(C)Oc1ccccc1N1CCN(Cc2ccc(CN3CCCCCCC3=O)n2C)CC1 | 260 nM | 18.1 nM | 20.8 nM | 4 mg/kg | Ki [13]: 1.7 nM; Ki [17]: 75 nM; % catalepsy at 40 mg/kg (Rattus norvegicus [16]): 4.2%; ED50 (Rattus norvegicus [3]): > 30 mg/kg

The next lines start with results.

Ki [5] | Ki [8] | Ki [9] | SMILES | ED50 (Rattus norvegicus [6]) | other results
227 nM | 304 nM | 38.2 nM | CCc1ccccc1N1CCN(Cc2ccc(CN3CCCC3=O)n2C)CC1 | 15 mg/kg | –
– | – | 53.1 nM | Cn1c(CN2CCN(c3ccccc3Cl)CC2)ccc1CN1CCCC1=O | > 15 mg/kg | –
– | 140 nM | 63.7 nM | Cn1c(CN2CCN(c3ccccc3C#N)CC2)ccc1CN1CCCC1=O | > 15 mg/kg | –
409 nM | 76 nM | 20 nM | CC(C)c1ccccc1N1CCN(Cc2ccc(CN3CCCC3=O)n2C)CC1 | 5.8 mg/kg | –
– | 139 nM | 166 nM | COc1ccccc1N1CCN(Cc2ccc(CN3CCCCC3=O)n2C)CC1 | 2.3 mg/kg | % catalepsy at 25 mg/kg (Rattus norvegicus [10]): 39.8%; ED50 (Rattus norvegicus [3]): 9.7 mg/kg
– | – | 140 nM | Cn1c(CN2CCN(c3ccccc3O)CC2)ccc1CN1CCCC1=O | > 15 mg/kg | –
> 1000 nM | 185 nM | 44.9 nM | COc1ccccc1N1CCN(Cc2ccc(CN3CCCC3=O)n2C)CC1 | 2.1 mg/kg | Ki [13]: 17.2 nM; % catalepsy at 25 mg/kg (Rattus norvegicus [10]): 31%; ED50 (Rattus norvegicus [3]): > 20 mg/kg
317 nM | 283 nM | 26.6 nM | CCCc1ccccc1N1CCN(Cc2ccc(CN3CCCC3=O)n2C)CC1 | > 30 mg/kg | –
355 nM | 27.3 nM | 11.3 nM | CCc1ccccc1N1CCN(Cc2ccc(CN3CCCCC3=O)n2C)CC1 | > 15 mg/kg | Ki [13]: 30 nM; Ki [17]: 100 nM
– | 1000 nM | 136 nM | Cc1ccccc1N1CCN(Cc2ccc(CN3CCCC3=O)n2C)CC1 | > 15 mg/kg | –
